Assay results published in ChEMBL document CHEMBL1201862, “PubChem BioAssay data set” (2004).
Activity calls are given as the source filed them.

Key:
[1] = target: T1, Corticotropin-releasing factor receptor 2/Corticotropin-releasing factor-binding protein (Homo sapiens, UniProt P24387+Q13324); assay: Dose Response confirmation of uHTS hits for small molecule antagonists of the CRF-binding protein and CRF-R2 receptor complex.; type: functional; settings: read-out: IC50_Mean
T1 sequence (Q13324 whole entry): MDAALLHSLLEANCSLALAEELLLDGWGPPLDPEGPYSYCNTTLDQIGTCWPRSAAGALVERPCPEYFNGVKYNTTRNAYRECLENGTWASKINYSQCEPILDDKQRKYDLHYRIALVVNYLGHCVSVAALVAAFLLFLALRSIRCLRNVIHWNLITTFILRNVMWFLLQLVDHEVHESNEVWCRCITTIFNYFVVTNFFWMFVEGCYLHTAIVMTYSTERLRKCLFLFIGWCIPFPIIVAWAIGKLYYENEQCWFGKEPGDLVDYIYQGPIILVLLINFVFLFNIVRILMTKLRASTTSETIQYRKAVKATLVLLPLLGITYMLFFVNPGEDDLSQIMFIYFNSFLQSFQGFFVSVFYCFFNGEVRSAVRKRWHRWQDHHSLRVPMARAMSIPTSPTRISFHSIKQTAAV
T1 sequence (P24387 whole entry): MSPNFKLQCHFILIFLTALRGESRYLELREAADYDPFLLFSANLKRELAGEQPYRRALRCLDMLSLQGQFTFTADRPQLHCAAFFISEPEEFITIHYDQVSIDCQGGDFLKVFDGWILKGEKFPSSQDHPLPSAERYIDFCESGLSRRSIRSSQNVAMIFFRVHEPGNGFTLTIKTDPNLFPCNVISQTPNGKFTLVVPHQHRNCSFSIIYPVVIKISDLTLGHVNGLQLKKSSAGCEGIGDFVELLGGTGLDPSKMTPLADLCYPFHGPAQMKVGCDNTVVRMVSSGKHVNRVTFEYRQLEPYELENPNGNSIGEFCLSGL

[2] = target: T1, Corticotropin-releasing factor receptor 2/Corticotropin-releasing factor-binding protein; assay: activators of CRF receptor 2 with binding protein – uHTS hits, confirmation (AID 602473); type: functional; settings: read-out: EC50_Mean
[3] = target: T2, RNA-binding protein pos-1 (Caenorhabditis elegans, UniProt G5EF15); assay: inhibitors of POS-1/mex-3 RNA binding, dose response, biochemical, fluorescence polarization (AID 1964);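 also: purified POS-1 fused to maltose binding protein made in E. coli; potency of compounds blocking POS-1 binding to fluorescent RNA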
T2 sequence (G5EF15 whole entry): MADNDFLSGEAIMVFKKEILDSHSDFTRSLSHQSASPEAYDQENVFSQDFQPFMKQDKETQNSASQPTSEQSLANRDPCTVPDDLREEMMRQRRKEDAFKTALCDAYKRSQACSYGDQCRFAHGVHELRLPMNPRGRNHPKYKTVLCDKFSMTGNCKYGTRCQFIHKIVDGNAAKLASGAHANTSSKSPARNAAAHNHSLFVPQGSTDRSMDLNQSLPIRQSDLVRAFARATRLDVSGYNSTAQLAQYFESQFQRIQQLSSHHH

[4] = target: T3, Zinc finger protein mex-5 (Caenorhabditis elegans, UniProt Q9XUB2); assay: MEX-5/TCR-2 RNA interaction inhibitors, dose response, biochemical, C. elegans, fluorescence polarization (AID 1960)
T3 sequence (Q9XUB2 whole entry): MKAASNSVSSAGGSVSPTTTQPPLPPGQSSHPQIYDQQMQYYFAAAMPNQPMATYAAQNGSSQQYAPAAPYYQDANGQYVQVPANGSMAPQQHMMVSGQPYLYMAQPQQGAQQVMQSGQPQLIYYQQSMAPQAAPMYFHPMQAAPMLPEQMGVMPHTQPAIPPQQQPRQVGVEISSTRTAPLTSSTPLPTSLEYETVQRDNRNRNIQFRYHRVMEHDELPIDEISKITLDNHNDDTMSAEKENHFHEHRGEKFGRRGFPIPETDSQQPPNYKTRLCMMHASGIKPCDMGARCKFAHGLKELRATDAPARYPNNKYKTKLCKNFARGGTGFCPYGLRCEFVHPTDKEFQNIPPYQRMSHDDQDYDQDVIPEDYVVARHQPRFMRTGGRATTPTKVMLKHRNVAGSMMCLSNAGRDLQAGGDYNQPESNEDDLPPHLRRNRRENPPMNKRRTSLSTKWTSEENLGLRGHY

[5] = Luminescence Cell-Based Dose Retest to Confirm Inhibitors of Cancer Stem Cells. [Related pubchem assays (depositor defined):AID2717, AID2721]; type: functional; settings: Homo sapiens
Cytochrome P450 2C19 = Cytochrome P450 2C19 (Homo sapiens, UniProt P33261); assay: Cytochrome panel assay with activity outcomes. Panel member name: p450-cyp2c19 Compounds with AC50 equal or less than 10 uM are considered active; type: functional
Cytochrome P450 2C9 = Cytochrome P450 2C9 (Homo sapiens, UniProt P11712)
Cytochrome P450 1A2 = target: T4, Cytochrome P450 1A2 (Homo sapiens, UniProt P05177);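 also: PubChem cytochrome P450 panel assay, CYP1A2 panel member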
T4 sequence (P05177 whole entry): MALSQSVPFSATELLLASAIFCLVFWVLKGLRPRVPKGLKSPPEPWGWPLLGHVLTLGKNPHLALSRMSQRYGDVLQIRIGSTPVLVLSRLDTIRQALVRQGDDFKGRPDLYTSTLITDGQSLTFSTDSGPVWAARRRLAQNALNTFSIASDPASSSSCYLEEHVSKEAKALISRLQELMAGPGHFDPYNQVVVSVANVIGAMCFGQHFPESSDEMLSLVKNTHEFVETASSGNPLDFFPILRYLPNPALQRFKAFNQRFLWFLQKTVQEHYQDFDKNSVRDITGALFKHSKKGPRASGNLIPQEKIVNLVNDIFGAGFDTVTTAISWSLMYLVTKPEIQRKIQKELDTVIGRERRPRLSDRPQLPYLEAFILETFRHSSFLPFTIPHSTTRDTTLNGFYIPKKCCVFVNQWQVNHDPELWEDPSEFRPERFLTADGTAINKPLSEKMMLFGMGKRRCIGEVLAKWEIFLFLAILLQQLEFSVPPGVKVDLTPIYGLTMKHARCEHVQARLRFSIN

[6] = system: Streptococcus sp. 'group A'; assay: growth inhibition of control SK(-) GAS strain, dose response, counter-screen for streptokinase expression inhibitor project, luminescence, kanamycin, BacTiterGlo, confirmation (AID 1900); type: functional, organism-based
Streptokinase A = target: T5, Streptokinase A (Streptococcus pyogenes serotype M1, UniProt P10520); assay: S. pyogenes streptokinase expression inhibitors, potency, dose response, plasminogen activation absorbance, OD405 (AID 1914); type: functional, Streptococcus pyogenes M1 GAS;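 also: secreted streptokinase activity via plasminogen activation per viability signal from cell pellet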
T5 sequence (P10520 whole entry): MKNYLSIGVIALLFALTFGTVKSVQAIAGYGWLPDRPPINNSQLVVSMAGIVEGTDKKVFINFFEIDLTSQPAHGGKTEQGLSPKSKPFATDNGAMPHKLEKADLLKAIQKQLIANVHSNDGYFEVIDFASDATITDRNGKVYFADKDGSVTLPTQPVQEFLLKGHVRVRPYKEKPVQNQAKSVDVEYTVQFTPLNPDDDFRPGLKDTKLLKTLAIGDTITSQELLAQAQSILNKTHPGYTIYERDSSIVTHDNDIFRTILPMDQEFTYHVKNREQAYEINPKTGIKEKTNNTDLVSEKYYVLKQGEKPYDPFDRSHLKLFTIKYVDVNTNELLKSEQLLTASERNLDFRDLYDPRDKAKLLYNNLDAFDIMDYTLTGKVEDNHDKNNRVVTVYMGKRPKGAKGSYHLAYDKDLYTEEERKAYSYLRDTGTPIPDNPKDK

Streptococcus = assay: Group A Streptococcus viability loss, dose response, counter-screen for streptokinase expression inhibitor project, luminescence, BacTiterGlo (AID 1915); type: functional, organism-based;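 also: potency for reduction of bacterial viability or growth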
[7] = Shn3 3'UTR reporter inhibitors, dose response, cell-based, Clone20 osteoblasts, firefly luciferase, cherry-picked (AID 624132); type: functional;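 also: firefly luciferase luminescence from reporter carrying the Shn3 3'UTR in osteoblasts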
[8] = HepG2 cell cytotoxicity, dose response, cytotoxicity control for Shn3 inhibitor project, CellTiter-Glo, cherry-picked (AID 624134); type: functional, cell-based

Cytochrome P450 2C9, sequence (P11712 whole entry): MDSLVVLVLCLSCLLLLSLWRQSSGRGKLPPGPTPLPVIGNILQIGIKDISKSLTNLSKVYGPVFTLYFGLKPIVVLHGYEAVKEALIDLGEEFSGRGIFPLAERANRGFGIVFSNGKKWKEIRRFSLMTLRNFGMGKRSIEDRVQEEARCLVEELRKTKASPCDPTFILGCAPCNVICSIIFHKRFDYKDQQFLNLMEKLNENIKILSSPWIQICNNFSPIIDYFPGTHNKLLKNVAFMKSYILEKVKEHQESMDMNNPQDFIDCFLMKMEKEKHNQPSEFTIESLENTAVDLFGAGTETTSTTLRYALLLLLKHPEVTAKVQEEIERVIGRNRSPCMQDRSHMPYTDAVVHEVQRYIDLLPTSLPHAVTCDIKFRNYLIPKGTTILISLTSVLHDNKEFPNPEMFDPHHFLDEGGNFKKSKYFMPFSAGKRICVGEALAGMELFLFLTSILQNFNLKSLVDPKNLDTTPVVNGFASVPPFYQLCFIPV
Cytochrome P450 2C19, sequence (P33261 whole entry): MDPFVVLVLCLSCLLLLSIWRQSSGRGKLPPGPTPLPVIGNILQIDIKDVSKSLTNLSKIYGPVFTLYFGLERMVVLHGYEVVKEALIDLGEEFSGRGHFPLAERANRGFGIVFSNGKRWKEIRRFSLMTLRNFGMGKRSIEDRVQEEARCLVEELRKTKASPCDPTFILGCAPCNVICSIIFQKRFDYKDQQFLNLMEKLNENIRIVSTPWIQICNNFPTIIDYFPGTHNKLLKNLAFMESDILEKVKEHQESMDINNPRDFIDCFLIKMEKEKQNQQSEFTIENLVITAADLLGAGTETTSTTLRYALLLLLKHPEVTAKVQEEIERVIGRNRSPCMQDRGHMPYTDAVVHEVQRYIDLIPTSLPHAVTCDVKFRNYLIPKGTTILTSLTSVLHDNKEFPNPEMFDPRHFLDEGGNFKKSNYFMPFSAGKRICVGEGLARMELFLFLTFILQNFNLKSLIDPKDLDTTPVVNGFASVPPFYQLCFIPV

Cc1cc(C)cc(C(=O)Nc2cccnc2Cl)c1
IC50 [1]: > 47.1 µM (inactive) | EC50 [2]: > 53 µM (inactive)

COC(=O)C1=COC(C)C2CN3CCc4c([nH]c5cc(OC)c(OC)cc45)C3CC12 (centres undefined)
EC50 [3]: 15.5 µM (active) | EC50 [4]: 14.4 µM (active)

Cc1cccc(N=C(S)NCC(C)CSc2ccc(Cl)cc2)c1 (centres undefined)
AC50 [5]: 5.75 µM (active)

Cc1c(C)c2c(c(C)c1O)CC[C@@](C)(CCC[C@@H](C)CCC[C@@H](C)CCCC(C)C)O2
AC50 (Cytochrome P450 2C19): inconclusive | AC50 (Cytochrome P450 2C9): inconclusive

CC(=O)NCCNc1ncncc1-c1ccccc1C
AC50 (Cytochrome P450 1A2): 25.1 µM (inconclusive) | AC50 (Cytochrome P450 2C9): inconclusive

CN1C(=O)C(=CNc2ccc(N3CCOCC3)cc2)C(=O)N(C)C1=S
EC50 [3]: > 300 µM (not active) | EC50 [4]: > 300 µM (inconclusive)

N#Cc1cc(N)ccc1Sc1ccc(Cl)cc1
AC50 (Cytochrome P450 2C9): inconclusive

CC(C)(C)c1ccc(Oc2ccc(N)cc2)cc1
AC50 [5]: 1.85 µM (active)

CN(C)c1cc(-c2ccc([N+](=O)[O-])cc2)oc(=O)c1Cl
EC50 [3]: 49.5 µM (active) | EC50 [4]: 165 µM (inconclusive)

Cc1ccc(C)n1CCN1CCN(CC(=O)Nc2cc(C(F)(F)F)ccc2Cl)CC1
AC50 (Cytochrome P450 2C9): inconclusive

COc1ccc(C)cc1NC(=O)N1CCCc2ccccc21
IC50 [1]: > 47.1 µM (inactive) | EC50 [2]: > 53 µM (inactive)

CCC(C)[C@H](NC(=O)N1CCn2c1nc1ccccc12)C(=O)NCc1ccc(OC)cc1 (some centres undefined)
IC50 [1]: > 47.1 µM (inactive) | EC50 [2]: > 53 µM (inactive)

Cc1cc(NC(=O)c2ccc(S(=O)(=O)N(C)C)cc2)n(-c2ccccn2)n1
AC50 (Cytochrome P450 2C9): inconclusive

Cc1nn(-c2ccccc2)c(C)c1/C=N/NC(=O)c1cc(-c2ccc(Br)s2)[nH]n1
EC50 [6]: 7.15 µM (active) | EC50 (Streptokinase A): > 150 µM (not active) | EC50 (Streptococcus): 11.8 µM (active) | AC50 [5]: 0.434 µM (active)

O=S(=O)(Nc1ccc(-n2cccc2)cc1)c1ccc(Cl)c(Cl)c1
EC50 [6]: 7.42 µM (active) | EC50 (Streptokinase A): 11.3 µM (inconclusive) | EC50 (Streptococcus): 7.58 µM (active) | AC50 [5]: 4.84 µM (active)

COc1cc(Nc2nc(-c3ccccc3)c3cc(C)ccc3n2)cc(OC)c1OC
AC50 [5]: 5.05 µM (active) | AC50 [7]: 6.55 µM (active) | AC50 [8]: 60.2 µM (active)

O=P(/C(=N/O)N1CCOCC1)(N1CCOCC1)N1CCOCC1
IC50 [1]: > 47.1 µM (inactive) | EC50 [2]: > 53 µM (inactive)
